Experiment [1] concerns the target T1, human mAChR M1 (Homo sapiens, UniProt P11229).
T1 sequence (P11229 1-460): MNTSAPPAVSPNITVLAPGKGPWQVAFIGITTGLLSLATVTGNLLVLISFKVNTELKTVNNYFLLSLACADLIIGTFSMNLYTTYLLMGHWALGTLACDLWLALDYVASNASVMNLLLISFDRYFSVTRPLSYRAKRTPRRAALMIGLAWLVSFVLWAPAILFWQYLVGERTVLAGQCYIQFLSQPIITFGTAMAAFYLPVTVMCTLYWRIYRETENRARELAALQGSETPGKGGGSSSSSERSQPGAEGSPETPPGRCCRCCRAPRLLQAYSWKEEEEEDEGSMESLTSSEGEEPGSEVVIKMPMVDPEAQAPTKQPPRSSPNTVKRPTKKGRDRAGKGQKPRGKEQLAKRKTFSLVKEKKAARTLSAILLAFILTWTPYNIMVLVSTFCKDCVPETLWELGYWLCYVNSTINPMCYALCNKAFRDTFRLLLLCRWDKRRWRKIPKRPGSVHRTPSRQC
In words: mAChR M1 cell-based functional assay (calcium mobilization), agonist mode: compound alone, Emax relative to acetylcholine maximum. Conditions: for EC50 / Agonist Activity Human M1 EC50: human mAChR M1; for Emax: relative to the maximum for acetylcholine. A digest of the protocol:
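Agonist activity is the concentration-dependent rise in intracellular calcium (Fluo-4, 1 Hz read) after compound addition, measured before any acetylcholine was added, in stable hM1 CHO-K1 cells. Curves were 11-point, 1:3 dilutions fitted by four-parameter logistic. Emax is given as a fraction of maximal acetylcholine response.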
(In general: Calcium assays in cells follow changes in intracellular calcium, usually with a dye or a luminescent sensor.)

The target in experiment [2] is T1, human mAChR M1. In words: mAChR M1 cell-based functional assay (calcium mobilization), PAM mode: increase in the EC20 acetylcholine response. A digest of the protocol: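 PAM readout is the concentration-dependent rise in the EC20 acetylcholine calcium signal, fitted to a four-parameter logistic (EC50, Emax). Compounds were preincubated from 4 s before ACh at 144 s (EC20) and 230 s (EC80). hM1-expressing CHO-K1 cells loaded with Fluo-4, FDSS ratio read.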

One may read the EC50 as the concentration at which the effect is half-maximal. In general, Emax refers to the size of the effect at its maximum, as opposed to the concentration needed.

On to `[2H]C1([2H])c2ncccc2C(=O)N1Cc1c(F)cc(-c2cn(C)c(=O)c3nn(C([2H])([2H])[2H])cc23)cc1F` [Compound 91, 4-(3,5-difluoro-4-((5-oxo-5,7-dihydro-6H-pyrrolo[3,4-b]pyridin-6-yl-7,7-d2)methyl)phenyl)-6-methyl-2-(methyl-d3)-2,6-dihydro-7H-pyrazolo[3,4-c]pyridin-7-one], for which the EC50 in experiment [1] is 7740 nM; in experiment [2] it was 718 nM. The values for the Emax in experiment [1] and in experiment [2] were 22% and 84%, respectively.
In the same order, the values of `[2H]C1([2H])c2ncccc2C(=O)N1Cc1c(C)cc(-c2ccc3nn(C)cc3c2)cc1F` [Compound 194, 6-(2-fluoro-6-methyl-4-(2-methyl-2H-indazol-5-yl)benzyl)-6,7-dihydro-5H-pyrrolo[3,4-b]pyridin-5-one-7,7-d2] are 3550 nM, 437 nM, 18% and 83%.
As for `[2H]C([2H])([2H])Oc1cnc2c(c1)C(=O)N(Cc1c(F)cc(-c3ccc(OC)c4nn(C)cc34)cc1F)C2([2H])[2H]` [Compound 146, 6-(2,6-difluoro-4-(7-methoxy-2-methyl-2H-indazol-4-yl)benzyl)-3-(methoxy-d3)-6,7-dihydro-5H-pyrrolo[3,4-b]pyridin-5-one-7,7-d2], in experiment [1], the EC50 worked out at 4640 nM and the maximal response (Emax) turned out to be 28%. In addition, in experiment [2], the EC50 turned out to be 179 nM and the Emax came to 79%.
For `[2H]C1([2H])c2ncccc2C(=O)N1Cc1ccc(-c2ccc(C)c3nn(C)cc23)cc1C` [Compound 30, 6-(4-(2,7-dimethyl-2H-indazol-4-yl)-2-methylbenzyl)-6,7-dihydro-5H-pyrrolo[3,4-b]pyridin-5-one-7,7-d2] the same measures were above 10000 nM, 22%, 1090 nM and 79%.
`[2H]C1([2H])c2ncccc2C(=O)N1Cc1c(F)cc(-c2cccc3nn(C)cc23)cc1OC` [Compound 231, 6-(2-fluoro-6-methoxy-4-(2-methyl-2H-indazol-4-yl)benzyl)-6,7-dihydro-5H-pyrrolo[3,4-b]pyridin-5-one-7,7-d2]: in experiment [1], the “Agonist Activity Human M1 EC50” value was “Inactive” and the Emax turned out to be 7%. In addition, in experiment [2], the EC50 is 806 nM and the Emax turned out to be 73%.
With `[2H]C1([2H])c2ncc(Br)cc2C(=O)N1Cc1c(F)cc(-c2cccc3nn(C)cc23)cc1F` [Compound 61, 3-Bromo-6-(2,6-difluoro-4-(2-methyl-2H-indazol-4-yl)benzyl)-6,7-dihydro-5H-pyrrolo[3,4-b]pyridin-5-one-7,7-d2], in experiment [1], the “Agonist Activity Human M1 EC50” value is listed as “Inactive” and the maximum response (Emax) is 8%. In addition, in experiment [2], the EC50 worked out at 1360 nM and the Emax was 68%.
In the same order, the values of `[2H]C1([2H])c2ncccc2C(=O)N1Cc1c(F)cc(-c2cc(F)cc3c2cnn3C([2H])([2H])[2H])cc1F` [Compound 247, 6-(2,6-difluoro-4-(6-fluoro-1-(methyl-d3)-1H-indazol-4-yl)benzyl)-6,7-dihydro-5H-pyrrolo[3,4-b]pyridin-5-one-7,7-d2] are “Inactive”, 2%, above 10000 nM and 29%.
For `[2H]C1([2H])c2ncccc2C(=O)N1Cc1ccc(-c2ccc(OC)c3nn(C([2H])([2H])[2H])cc23)cc1F` [Compound 55, 6-(2-fluoro-4-(7-methoxy-2-(methyl-d3)-2H-indazol-4-yl)benzyl)-6,7-dihydro-5H-pyrrolo[3,4-b]pyridin-5-one-7,7-d2] the same measures were “Inactive”, 7%, 275 nM and 88%.
As to `[2H]C1([2H])c2ncccc2C(=O)N1Cc1c(F)cc(-c2cnc3nn(C)cc3c2)cc1F` [Compound 3, 6-(2,6-difluoro-4-(2-methyl-2H-pyrazolo[3,4-b]pyridin-5-yl)benzyl)-6,7-dihydro-5H-pyrrolo[3,4-b]pyridin-5-one-7,7-d2], the half-maximal effective concentration (EC50) in experiment [1] turned out to be 6920 nM; in experiment [2], 900 nM. The maximal response (Emax) in experiment [1] was 31%; in experiment [2], 56%.
In the same order, the values of `[2H]C1([2H])c2ncccc2C(=O)N1Cc1c(F)cc(-c2ccc(OCCOC)c3nn(C)cc23)cc1OCC(C)C` [Compound 218, 6-(2-fluoro-6-isobutoxy-4-(7-(2-methoxyethoxy)-2-methyl-2H-indazol-4-yl)benzyl)-6,7-dihydro-5H-pyrrolo[3,4-b]pyridin-5-one-7,7-d2] are 7760 nM, 516 nM, 25% and 79%.
For the compound `[2H]C1([2H])c2ncccc2C(=O)N1Cc1c(F)cc(-c2cc(F)c(F)c3nn(C)cc23)cc1F` [Compound 105, 6-(4-(6,7-difluoro-2-methyl-2H-indazol-4-yl)-2,6-difluorobenzyl)-6,7-dihydro-5H-pyrrolo[3,4-b]pyridin-5-one-7,7-d2], in experiment [1], the “Agonist Activity Human M1 EC50” value is “Inactive” and the maximal response (Emax) was 2%. In addition, in experiment [2], the 50% effective concentration (EC50) came out at 195 nM and the Emax was determined as 27%.
As to `[2H]C([2H])([2H])Oc1cnc2c(c1)C(=O)N(Cc1c(F)cc(-c3ccc4nn(C)cc4c3)cc1F)C2([2H])[2H]` [Compound 112, 6-(2,6-difluoro-4-(2-methyl-2H-indazol-5-yl)benzyl)-3-(methoxy-d3)-6,7-dihydro-5H-pyrrolo[3,4-b]pyridin-5-one-7,7-d2], in experiment [1], the “Agonist Activity Human M1 EC50” value is given as “Inactive” and the maximum response (Emax) amounted to 2%. Moreover, in experiment [2], the concentration for a half-maximal effect (EC50) stood at 76 nM and the Emax turned out to be 63%.
`[2H]C1([2H])c2ncccc2C(=O)N1Cc1c(F)cc(-c2ccc(OC(C)C)c3nn(C)cc23)cc1F` [Compound 98, 6-(2,6-difluoro-4-(7-isopropoxy-2-methyl-2H-indazol-4-yl)benzyl)-6,7-dihydro-5H-pyrrolo[3,4-b]pyridin-5-one-7,7-d2]: the results for the concentration for a half-maximal effect (EC50) in experiment [1] and in experiment [2] were 8390 nM and 286 nM, respectively. Further, the Emax in experiment [1] amounted to 21%; in experiment [2], 76%.
As for `[2H]C1([2H])c2ncccc2C(=O)N1Cc1c(F)cc(-c2ccc(F)c3nn(C([2H])([2H])[2H])cc23)cc1F` [Compound 45, 6-(2,6-difluoro-4-(7-fluoro-2-(methyl-d^3)-2H-indazol-4-yl)benzyl)-6,7-dihydro-5H-pyrrolo[3,4-b]pyridin-5-one-7,7-d2], in experiment [1], the “Agonist Activity Human M1 EC50” value is “Inactive” and the Emax worked out at 2%. For the same compound, in experiment [2], the EC50 was found to be 411 nM and the Emax was found to be 73%.
As for `[2H]C1([2H])c2ncccc2C(=O)N1Cc1c(F)cc(-c2cc(OC)cc3nn(C)cc23)cc1F` [Compound 90, 6-(2,6-difluoro-4-(6-methoxy-2-methyl-2H-indazol-4-yl)benzyl)-6,7-dihydro-5H-pyrrolo[3,4-b]pyridin-5-one-7,7-d2], in experiment [1], the “Agonist Activity Human M1 EC50” value is listed as “Inactive” and the Emax was 2%. In experiment [2], the EC50 came out at 1700 nM and the maximal response (Emax) worked out at 72%.
In the same order, the values of `[2H]C1([2H])c2ncccc2C(=O)N1Cc1ccc(-c2ccc3nn(C)cc3c2)cc1` [Compound 12, 6-(4-(2-methyl-2H-indazol-5-yl)benzyl)-6,7-dihydro-5H-pyrrolo[3,4-b]pyridin-5-one-7,7-d2] are “Inactive”, 2%, 1230 nM and 62%.

These data come from US20240228489A1, “POSITIVE ALLOSTERIC MODULATORS OF THE MUSCARINIC ACETYLCHOLINE RECEPTOR M1” (Vanderbilt University, priority 2021, published 2024).
